In article PMC7756582, “Prodrugs of γ‐Alkyl‐Modified Nucleoside Triphosphates: Improved Inhibition of HIV Reverse Transcriptase” (Angewandte Chemie (International Ed. in English), 2020):

Key:
[1] = Enzyme-catalyzed hydrolysis in human CD4+ T-lymphocyte CEM cell extracts; format: in vitro ADME; settings: for half-life at 0.86 mM: CEM/0 cell extracts (CD4+ T-lymphocytes), human CD4+ T-lymphocyte CEM cell extracts, 37 °C, read-out: CEM/0 cell extracts t 1/2 (converted)
Procedure: The stability of prodrugs 6 and the γ‐alkyl‐NTPs 7 was further investigated in human CD4 ^+ T‐lymphocyte CEM cell extracts. […] Thus, an enzymatic cleavage reaction took place. Half‐lives as low as 0.4 h (6 az) to 5.2 h (6 dz) were determined. […] This is in accordance to our previous results for the DiPPro‐[ ^17 , ^18 ] or the TriPPPro‐compounds 5.[ ^22 , ^23 ] In all cases we observed the predominant formation of γ‐alkyl‐d4TTPs 7 and d4TDP 2 d in very low concentration (Figure 2 B) but no NTP formation was detected, in contrast to the studies using the previously described TriPPPro compounds 5.[ ^23 , ^24 ] However, the difference to the compounds bearing long lipophilic acyl groups was not very pronounced (2‐ to 3‐fold). In the case of γ‐(AB‐C4,alkyl‐C18)‐d4TTP 6 cz, γ‐C18‐d4TTP 7 z was detected as the main product. After 8 h incubation, the ratio of γ‐C18‐d4TTP 7 z and d4TDP 2 d was 5:1. This was in sharp contrast to the studies performed with TriPPPro compounds 5.[ ^23 , ^24 ] There, it was almost impossible to detect significant concentrations of d4TTP due to its fast dephosphorylation to form first d4TDP and finally d4TMP 2 m. […] The formation of thymine or d4TTP 2 t from γ‐C18‐d4TTP 7 z was not detected (Supporting Information, Figure SI2).
(§1) ProLab 300 from Schott Co.. Thermomixer: Eppendorf Thermomixer 5436 and CellMedia Thermoschüttler basic were used. […]
Enzyme-catalyzed hydrolysis of γ-(AB,alkyl)-d4TTPs 6, γ-alkyl-d4TTPs 7,15 and TriPPPros 5 in CEM cell extracts:
18 µL of the appropriate 50 mM DMSO-d6 stock solution was diluted to 6.0 mM hydrolysis solution by addition of 132.0 µL DMSO-d6.
7-10 different samples including 10 µL water and 10 µL hydrolysis solution were prepared in 2 mL Eppendorf® vials. The reaction was started by addition of 50 µL human CEM cell extract and the mixture was incubated at 37 °C for different time periods. The reactions were stopped by addition of 150 μL MeOH. The solution was kept on ice for 5 min followed by centrifugation for 5 min (13000 rpm).
The supernatants were filtered (Chromafil® RC-20/15 MS, 0.2 μm) and stored in liquid nitrogen. When testing, the samples were defrosted and injection volume with 80 μL was used for HPLC analysis. The calculation of t1/2 was performed analogously to that for the chemical hydrolysis studies.
(§2) Preparation of cell extracts: Human CD4+ T-lymphocyte CEM cells were grown in RPMI-1640-based cell culture medium to a final density of ~3·10^6 cells/ml. Then, cells were centrifuged for 10 min at 1,250 rpm at 4 °C, washed twice with cold PBS, and the pellet was re-suspended at 10^8 cells/ml and sonicated (Hielscher Ultrasound Techn., 100% amplitude, 3·times for 10 sec) to destroy cell integrity. The resulting cell suspension was then centrifuged at 10,000 rpm to remove cell debris, and the supernatant divided in aliquots before being frozen at -80 C and used.

HIV-2(ROD) [2] = assay: Anti-HIV activity assay, HIV-2-infected thymidine-kinase-deficient CEM/TK- cell cultures; format: cell-based; settings: for antiviral activity in CEM/TK− cell cultures (in words): HIV-2-infected CEM/TK− cells; for EC50: read-out: EC50 CEM/TK− HIV-2
Procedure: (§3) γ‐(AB,alkyl)‐d4TTP prodrugs 6 and the γ‐alkyl‐d4TTPs 7 were evaluated for their ability to inhibit the replication of HIV in HIV‐1‐ or HIV‐2‐infected wild‐type CEM/0 as well as mutant thymidine‐kinase‐deficient CEM cell cultures (CEM/TK^−). For comparison, two TriPPPro derivatives 5 were also included in this assay.
(§4) Anti-HIV activity assay: Inhibition of HIV-1(IIIB)- and HIV-2(ROD)-induced cytopathicity in wild-type CEM/0 and thymidine kinase-deficient CEM/TK- cell cultures was measured in microtiter 96-well plates containing ~3·105 CEM cells/mL infected with 100 CCID50 of HIV per milliliter and containing appropriate dilutions of the test compounds. After 4−5 days of incubation at 37 °C in a CO2-controlled humidified atmosphere, CEM giant (syncytium) cell formation was examined microscopically. […]
(§5) was defined as the compound concentration required to inhibit HIV-induced giant cell formation by 50%. […]
(§6) The result was visualized by fluorescence imaging. […]
as §6

[3] = Chemical hydrolysis in aqueous phosphate buffer (PBS, pH 7.3); format: physicochemical; settings: phosphate buffered saline (PBS); aqueous 25 mM phosphate buffer, pH 7.3, 37 °C; removal of AB group; n.h. = no hydrolysis observed through cleavage of AB-mask; read-out: PBS pH 7.3 t 1/2 (converted)
Procedure: γ‐(AB,alkyl)‐NTP prodrugs 6 and γ‐alkyl‐NTPs 7 were incubated in aqueous phosphate buffer (PBS, 25 mM, pH 7.3), or were exposed to pig liver esterase (PLE) in phosphate buffer (PBS) and to human CD4^+ T‐lymphocyte cell extracts to study their stability and the product distribution. The hydrolysis mixtures were analyzed by means of analytical rp‐18‐HPLC. The calculated half‐lives of prodrugs 6 (Table 1, t 1/2) reflect the removal of the bioreversible AB group to yield γ‐alkyl‐NTPs 7. Possible hydrolysis pathways and products are summarized in Scheme 4.
As hydrolysis products, a predominant formation of γ‐alkyl‐d4TTPs 7 and a very small amount of d4TDP […] was detected (approximately 3 %). After consumption of the starting material, no further increase of d4TDP concentration was observed. This supports the hypothesis that only the double‐γ‐esterified d4TTP prodrugs 6 were prone to a bond breakage between the γ‐ and β‐phosphate. […] In contrast to previous studies with TriPPPro‐NTPs 5 containing a second cleavable mask (first generation NTP prodrugs),[ ^23 , ^24 , ^25 ] no d4TTP was detected in these studies using 6 or 7. A side reaction occurred during the studies using compounds 7 that led to the formation of thymine by the cleavage of the glycosidic bond as reported before.[ ^19 , ^22 ]
as §1
Chemical hydrolysis of prodrugs of γ-(AB,alkyl) d4TTP 6 as well as the γ-alkyl-NTPs 7,15:
Stock solutions (50mM in DMSO-d6) of compounds 6,7 were prepared. After dilution of 11 µL stock solution with 100 µL milliQ water and 189 µL DMSO-d6 to 1.9mM hydrolysis solutions the reaction was started by addition of 300 µL phosphate buffer saline (PBS, 50mM, pH 7.3). The solution was incubated at 37 C in a thermomixer. An initial aliquot (25 µL) was taken directly and analyzed by analytical HPLC at 265-266 nm. Further aliquots were taken for monitoring the kinetic hydrolysis. The exponential decay curves (pseudo-first order) based on absolute integral values were calculated with commercially available software (OriginPro 9.0G) and yielded the half-lives t1/2 of the prodrugs via one determination. […]
The calculation of t1/2 was performed analogously to that for the chemical hydrolysis studies.
as §2
(1 picture or pasted object on this page, not shown here)

HIV-1(IIIB) = assay: Anti-HIV activity assay, HIV-1-infected wild-type CEM/0 cell cultures; format: cell-based; settings: Human immunodeficiency virus 1, IIIB, CCRF-CEM; wild-type CEM/0 cells, HIV-1; mean±SD, n=2-3; read-out: EC50 CEM/0 HIV-1
Procedure: as §3, §4, §5, §6, §6

[4] = Cytotoxicity: inhibition of CD4+ T-cell (CEM) proliferation; format: cell-based; settings: human, CEM/0 cells (CD4+ T-cells), 50 % cytostatic concentration, mean±SD, n=2-3
HIV-2(ROD) [5] = assay: Anti-HIV activity assay, HIV-2-infected wild-type CEM/0 cell cultures; format: cell-based; settings: Human immunodeficiency virus 2, CCRF-CEM, read-out: EC50 CEM/0 HIV-2
Procedure: as §3, §4, §5, §6, §6

[6] = Human immunodeficiency virus 2, thymidine-kinase-deficient CEM/TK− cells, HIV-2, mean±SD, n=2-3
[7] = wild-type CEM/0 cells, HIV-2, mean±SD, n=2-3

Compound | half-life at 0.86 mM [1] [h] | antiviral activity in CEM/TK− cell cultures (in words) (HIV-2(ROD) [2]) | EC50 (HIV-2(ROD) [2]; [6]) [nM] | half-life at 0.92 mM [3] [h] | EC50 (HIV-1(IIIB)) [nM] | CC50 [4] [nM] | EC50 (HIV-2(ROD) [5]; [7]) [nM] | EC50 (HIV-2(ROD) [2]; Human immunodeficiency virus 2, CEM-TK(-)) [nM] | EC50 (HIV-2(ROD) [5]) [nM] | EC50 (HIV-2(ROD) [2]; thymidine-kinase-deficient CEM/TK− cells, HIV-2, mean±SD, n=2-3) [nM] | EC50 (HIV-2(ROD) [2]; thymidine-kinase-deficient CEM/TK− cells, HIV-2, mean±SD, n=2-3, listed as d4T 1) [nM] | stability in cell extracts (in words) ([1]; CEM cell extracts, incubation up to 30 h)
CCCCCCCCC(=O)Oc1ccc(COP(=O)(OCc2ccc(OC(=O)CCCCCCCC)cc2)OP(=O)(O)OP(=O)(O)OCC2C=CC(n3cc(C)c(=O)[nH]c3=O)O2)cc1 (stereo not drawn) [5 a, reference compound] | 1.6 | active | 2260 ± 1030 | 52 | 310 ± 10 | 52000 ± 1000 | 620 ± 300 |  |  |  |  | 
CCCCCCCCCCCCCCCCCC(=O)Oc1ccc(COP(=O)(OCc2ccc(OC(=O)CCCC)cc2)OP(=O)(O)OP(=O)(O)OCC2C=CC(n3cc(C)c(=O)[nH]c3=O)O2)cc1 (stereo not drawn) [5 b, reference compound] | 3.3 | active | 540 ± 410 | 50 | 120 ± 50 | 33000 ± 7000 | 100 ± 30 |  |  |  |  | 
CCCCCCCCCCCCCCCCCCOP(=O)(OCc1ccc(OC(C)=O)cc1)OP(=O)(O)OP(=O)(O)OCC1C=CC(n2cc(C)c(=O)[nH]c2=O)O1 (stereo not drawn) [6 az] | 0.4 |  | 390 ± 300 | 196 | 220 ± 50 | 17000 ± 5000 | 500 ± 140 |  |  |  |  | 
CCCCCCCCCCCCCCCCCCOP(=O)(OCc1ccc(OC(=O)CC)cc1)OP(=O)(O)OP(=O)(O)OCC1C=CC(n2cc(C)c(=O)[nH]c2=O)O1 (stereo not drawn) [6 bz] | 1.6 |  |  | 206 | 190 ± 90 | 11000 ± 4000 |  | 350 ± 250 | 250 |  |  | 
CCCCOP(=O)(OCc1ccc(OC(=O)CCCC)cc1)OP(=O)(O)OP(=O)(O)OCC1C=CC(n2cc(C)c(=O)[nH]c2=O)O1 (stereo not drawn) [6 cw] | 0.7 | marked loss of activity | 9740 ± 3440 | 94 | 500 ± 210 | 64000 ± 11000 | 670 ± 880 |  |  |  |  | 
CCCCCCCCCCCCCCCOP(=O)(OCc1ccc(OC(=O)CCCC)cc1)OP(=O)(O)OP(=O)(O)OCC1C=CC(n2cc(C)c(=O)[nH]c2=O)O1 (stereo not drawn) [6 cy] | 3.4 |  | 390 ± 300 | 197 | 250 | 21000 ± 7000 | 230 ± 180 |  |  |  |  | 
CCCCCCCCCCCCCCCOP(=O)(OCc1ccc(OC(=O)CCCCCC)cc1)OP(=O)(O)OP(=O)(O)OCC1C=CC(n2cc(C)c(=O)[nH]c2=O)O1 (stereo not drawn) [6 dy] | 3.6 |  | 920 ± 120 | 212 | 180 ± 10 | 18000 ± 4000 | 160 ± 110 |  |  |  |  | 
CCCCCCCCCCCCCCCCCCOP(=O)(OCc1ccc(OC(=O)CCCCCC)cc1)OP(=O)(O)OP(=O)(O)OCC1C=CC(n2cc(C)c(=O)[nH]c2=O)O1 (stereo not drawn) [6 dz] | 5.2 |  | 760 ± 110 | 269 | 170 | 27000 ± 4000 | 210 ± 60 |  |  |  |  | 
CCCCCCCCCCCCCCCOP(=O)(OCc1ccc(OC(=O)CCCCCCCCCCCCCCC)cc1)OP(=O)(O)OP(=O)(O)OCC1C=CC(n2cc(C)c(=O)[nH]c2=O)O1 (stereo not drawn) [6 ey] | 2.5 |  | 3900 ± 3400 | 249 | 620 ± 300 | 48000 ± 31000 | 860 ± 40 |  |  |  |  | 
Cc1cn([C@H]2C=C[C@@H](CO)O2)c(=O)[nH]c1=O [Compound 1, 3′‐deoxy‐2′,3′‐didehydrothymidine, reference compound] |  |  |  |  | 430 ± 250 | > 50000 |  |  | 220 ± 50 | > 50000 | 150000 | 
Cc1cn([C@H]2C[C@H](O)[C@@H](COP(=O)(O)OP(=O)(O)OP(=O)(O)O)O2)c(=O)[nH]c1=O [TTP, reference compound] |  |  |  |  |  |  |  |  |  |  |  | rapidly enzymatically dephosphorylated
